Source: patent US20220133738A1, “GENOTYPE AND DOSE-DEPENDENT RESPONSE TO AN ASBTI IN PATIENTS WITH BILE SALT EXPORT PUMP DEFICIENCY” (MIRUM PHARMACEUTICALS, INC., priority 2019, published 2022)
Several values for one entry are separate records, joined by “and”; a condition that tells them apart may be missing. Equal entries are not always repeated.

How the values were obtained:
Type in all cases: in vivo, human
[1] = test system: children with progressive familial intrahepatic cholestasis (PFIC); assay: INDIGO phase 2 open-label efficacy and safety study of maralixibat in children with PFIC
[2] = test system: adults with primary sclerosing cholangitis (PSC); assay: CAMEO 14-week single-arm open-label phase 2a study of maralixibat in primary sclerosing cholangitis
Method: Participants were adults aged 18-80 years with a diagnosis of PSC. PSC diagnosis included a documented history of alkaline phosphatase (ALP) levels greater than 1.5 times above the upper limit of normal, biliary obstruction, and histological findings consistent with PSC diagnosis (if previously biopsied). The study enrolled 27 adults.
Efficacy was assessed by measuring at baseline and throughout the study sBA concentration, serum 7αC4 concentration (a marker of de novo bile acid synthesis), serum aoutotaxin concentration, LDL-C concentration, serum total cholesterol concentration, serum liver enzyme concentrations, and pruritus severity. Pruritus severity was determined by calculating Adult Itch Reported Outcome (ITCHRO) weekly sum scores and average daily scores (mean score over a 7-day period). Participants self-reported the ITCHRO daily on a scale 0-10 (0=no pruritus; 10=most severe pruritus).
Outcomes were assessed in the overall study population and in subgroups of participants (A) with any pruritus at baseline or (B) with an ITCHRO average daily score ≥4 out of 10 at baseline. Efficacy endpoints were based on change from baseline to week 14 or early termination (ET) and were analyzed using paired t-tests or Wilcoxon signed rank tests.

[3] = test system: overweight and obese adults; assay: Dose-ranging phase 1 clinical study (NCT02475317): fecal bile acid excretion with maralixibat and volixibat; conditions: for fBA excretion, mean change from baseline: baseline to day 6 and 7
[4] = test system: children with progressive familial intrahepatic cholestasis (PFIC); assay: INDIGO phase 2 open-label efficacy and safety study of maralixibat in children with PFIC; remark: listed apart in the source
Description: The HRQoL used was the […] QUALITY OF LIFE INVENTORY (PedsQL).

[5] = individual participants A-F with ITCHRO daily score ≥4 at baseline, one line per participant
[6] = participants with ITCHRO daily score ≥4 at baseline

Changes in serum total bilirubin, alanine aminotransferase, aspartate aminotransferase, and alkaline phosphatase concentrations ([2]; baseline to week 14/ET): not statistically significant
Mean conjugated bilirubin levels, increase ([2]; overall population): 0.19 mg/dL
Structure (SMILES): CCCCC1(CCCC)CS(=O)(=O)c2ccc(N(C)C)cc2[C@@H](c2ccc(OCc3ccc(C[N+]45CCN(CC4)CC5)cc3)cc2)[C@H]1O [maralixibat]
multi-parameter responders among mild PFIC 2 patients ([1]; 280 μg/kg QD): 1 of 7
moderate PFIC 2 patients responsive only at the higher dose (high-dose responder) ([1]; 280 μg/kg twice daily): 1 of 12
responders among moderate PFIC 2 patients ([1]; 280 μg/kg/day by week 48): 5 of 12
Multi-parameter Responders (%) ([1]; Mild PFIC 2 (N = 7)): (14.3%)
Multi-parameter Responders (%) ([1]; Moderate PFIC 2 (N = 12)): (50%)
Multi-parameter Responders (%) ([1]; Truncating BSEP (N = 6)): (0%)
multi-parameter response ([1]; all PFIC 1 patients and all patients harboring a truncating ABCB11 mutation): not multi-parameter responders
increase in C4 levels relative to baseline ([1]; all low-dose responders (280 μg/kg/day), within 13 weeks of first administration): at least 2.5 fold
serum ALT, AST, and bilirubin concentrations over time ([1]; all low-dose responders, within 2-6 months of first administration): normalized or only mildly elevated
height Z-score ([1]; high dose responder, following treatment response on sBA): increase in height Z-score
7αC4:sBA ratio ([1]; high-dose responder, upon administration of 560 μg/kg/day): 1770 times baseline
cholestasis markers after dose increase ([1]; low-dose responder losing response in long-term extension, raised to 280 μg/kg BID at 640-730 days): sBA concentration decreased, severity of pruritus decreased, serum 7αC4 concentration increased, and 7αC4:sBA ratio increased
7αC4 concentrations at 48 weeks relative to baseline ([1]; low-dose responders (range, 3-43)): 14 × baseline
growth (height Z-score change from baseline) ([1]; low-dose responders, FIG. 4): improved growth relative to baseline
7αC4:sBA ratio, mean change from baseline at week 48 ([1]; non-responders (range, 0.43-12)): 1.9 times baseline ratio
duration of maintained response ([1]; responders in the INDIGO study): for over a year and for up to or beyond 5 years
Response: reduction in BAs ([1]; subject 080051-L, mild PFIC 2): >70%
response at the higher dose in prior non-responders ([1]; three non-truncating PFIC 2 patients without response at 280 μg/kg/day given 560 μg/kg/day): one (mentioned above) responded at the higher dose
ALT, change from baseline to week 48, mean ([1]; week 48): −12 UI/L
C4, change from baseline to week 48, mean ([1]; week 48): +6.0 ng/mL
ItchRO(Obs) score, change from baseline to week 48, mean ([1]; week 48): −1.0
Total bilirubin, change from baseline to week 48, mean ([1]; week 48): +0.8 mg/dL
sBA, change from baseline to week 48, mean ([1]; week 48): -32 µmol/L
tolerability ([2]; adults with PSC, 14 weeks): well tolerated
participants with worsening of pruritus by >1 point ([2]; baseline to week 14): No participants
ItchRO average daily score (0-10 scale), Change from baseline to week 14/ET [2, 5]: −4.6 and −1.7 and −3.7 (2×) and −9.1 and −4.7
ItchRO average daily score (0-10 scale), Week 14/ET [2, 5]: 1.3 and 5.1 and 3.1 and 2.3 and 0 (2×)
total cholesterol, mean change ([2]; overall population): -21.2 mg/dL
ITCHRO weekly sum scores, decrease from baseline ([2]; overall population, baseline to week 14/ET, 10 mg/day maintenance): 51%
serum LCL-C concentration, change from baseline ([2]; overall population, SD 17.6): -16.3 mg/dL
serum autotaxin concentration, change from baseline ([2]; overall population, SD 319): -148 ng/mL
Mean levels of 7αC4, increase from baseline ([2]; overall, week 14/ET): 130%
sBA levels, decrease from baseline ([2]; overall, week 14/ET): 38%
7αC4, mean increase from baseline ([2]; overall, week 14/ET, SD 13.6): 11.1 ng/mL
sBA levels, mean change from baseline ([2]; overall, week 14/ET, SD 31.4): -14.8 µmol/L
Mean levels of 7αC4, increase from baseline [2, 6]: 107%
sBA levels, decrease from baseline [2, 6]: 45%
total cholesterol, mean change [2, 6]: -32.0 mg/dL
ITCHRO weekly sum scores, decrease from baseline ([2]; participants with ITCHRO daily score ≥4 out of 10 at baseline (n=6), week 14/ET): 70%
ITCHRO weekly sum scores, decrease from baseline ([2]; participants with any pruritus at baseline (n=18), week 14/ET): 53%
participants with ITCHRO average daily score improved by >1 point ([2]; week 14/ET): 29.6%
participants with ITCHRO average daily score improved by >3 points ([2]; week 14/ET): 22.2%
fBA excretion, mean change from baseline ([3]; 10 mg dose (QD), 7 days): 515 µmol
fBA excretion, mean change from baseline ([3]; 20 mg dose (QD), 7 days): 532 µmol
fBA excretion, mean change from baseline ([3]; 50 mg BID, 7 days): 1251 µmol
fBA excretion, mean change from baseline ([3]; 100 mg QD, 7 days): 1144 µmol
fBA excretion, dose dependence ([3]; across tested doses, 7 days): increased in a dose-dependent manner
treatment-emergent adverse events ([3]; all doses, 7 days): mild, and none were serious
Mean serum 7αC4 ([3]; baseline to day 7, greatest change at maralixibat 50 mg BID): increased
Mean sBA levels ([3]; day 7 versus baseline): not elevated
Multi-parameter Responders (n/N) ([4]; Mild PFIC 2 (N = 7)): 1/7
Multi-parameter Responders (n/N) ([4]; Moderate PFIC 2 (N = 12)): 6/12
Multi-parameter Responders (%) ([4]; Non-truncating BSEP (N = 19)): (36.8%)
Multi-parameter Responders (n/N) ([4]; Non-truncating BSEP (N = 19), response = >70% reduction or normalization in sBA and >1.0 reduction or <1.0 ITCHRO(OBS)): 7/19
Multi-parameter Responders (n/N) ([4]; Truncating BSEP (N = 6)): 0/6
7αC4:sBA ratio ([4]; high-dose responder, prior to administration of 560 μg/kg/day): 12 times baseline
Response (observed response) ([4]; individual PFIC 2 participants, one line per Subject ID of Table 3, (No reponse [sic] / Rapid complete response / Good response), max dose 280 or 560 μg/kg/day): Rapid (4×) and No (18×) and Good
7αC4:sBA ratio, mean change from baseline at week 48 ([4]; low-dose responders (range, 5-3982)): 1388 times baseline ratio
7αC4 concentrations at 48 weeks relative to baseline ([4]; non-responders (range, 0.5-6)): 1.8 × baseline
